From ChEMBL document CHEMBL1255224, “Design and synthesis of prolylcarboxypeptidase (PrCP) inhibitors to validate PrCP as a potential target for obesity” (J Med Chem, 2010) come the findings set out here.

Data set [1] can be described thus: Clearance in mouse. Particulars: in vivo. It is filed as ADME, organism-based.
A short description of data set [2]: Oral bioavailability in mouse. It is filed as ADME, organism-based. Particulars: in vivo.
The nature of data set [3]: Volume of distribution in mouse. In kind it is ADME, organism-based. To be noted: in vivo.
A short description of data set [4]: Half life in mouse. Particulars: in vivo. In kind it is ADME, organism-based.
The target of data set [5] is T1, Lysosomal Pro-X carboxypeptidase (Mus musculus, UniProt Q7TMR0).
T1 sequence (Q7TMR0 whole entry): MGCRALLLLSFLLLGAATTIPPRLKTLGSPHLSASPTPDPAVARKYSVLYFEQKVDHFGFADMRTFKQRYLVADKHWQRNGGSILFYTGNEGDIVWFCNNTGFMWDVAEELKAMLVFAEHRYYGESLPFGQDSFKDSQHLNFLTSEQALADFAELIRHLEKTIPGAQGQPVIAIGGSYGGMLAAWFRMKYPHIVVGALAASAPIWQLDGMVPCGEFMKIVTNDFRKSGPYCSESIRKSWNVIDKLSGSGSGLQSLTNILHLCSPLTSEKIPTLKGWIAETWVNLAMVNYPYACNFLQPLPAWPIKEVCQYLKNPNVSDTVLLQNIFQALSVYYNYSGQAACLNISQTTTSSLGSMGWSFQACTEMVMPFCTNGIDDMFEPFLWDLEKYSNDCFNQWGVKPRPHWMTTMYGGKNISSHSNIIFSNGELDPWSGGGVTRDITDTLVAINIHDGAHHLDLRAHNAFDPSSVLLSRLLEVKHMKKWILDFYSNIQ
Description: Inhibition of mouse PrCP by FRET in presence of 1% mouse serum albumin.

In data set [6] the target is T1, Lysosomal Pro-X carboxypeptidase. Briefly: Inhibition of mouse PrCP by FRET.
Data set [7] concerns Mus musculus. Description: Antiobesity activity against C57BL/6NT mouse PrCP knock out model assessed as reduction in body weight at 100 mg/kg, po for 5 days. It is filed as functional. Details: scale not given: the % may be the effect or the level left.
Data set [8] concerns Brain. Description: Drug level in C57BL/6NT PrCP knock out mouse brain at 100 mg/kg, po. In kind it is ADME, organism-based. Details: dose 100 mg/kg, route oral. Particulars: in vivo, read-out: Activity.
Data set [9] relates to Brain. Briefly: Drug level in C57BL/6NT wild type mouse brain at 100 mg/kg, po. Details: dose 100 mg/kg, route oral. In kind it is ADME, organism-based. To be noted: in vivo, read-out: Activity.
For data set [10], the system named is Blood. Briefly: Drug level in C57BL/6NT wild type mouse blood at 100 mg/kg, po. To be noted: in vivo, read-out: Activity. In kind it is ADME, organism-based. More on the design: dose 100 mg/kg, route oral.
The subject of data set [11] is Mus musculus. Briefly: Antiobesity activity against C57BL/6NT mouse overexpressing PrCP assessed as reduction in body weight at 100 mg/kg, po. It is filed as functional. Details: scale not given: the % may be the effect or the level left.
Data set [12] deals with Blood. Briefly: Drug level in C57BL/6NT PrCP knock out mouse blood at 100 mg/kg, po. In kind it is ADME, organism-based. More on the design: dose 100 mg/kg, route oral. To be noted: in vivo, read-out: Activity.

`CC(C)(O)C(=O)N[C@@H](Cc1ccc(-c2ccccc2)cc1)C(=O)N1CCC[C@H]1c1nc2cc(F)c(F)cc2[nH]1`: in data set [1], the clearance (commonly a measure of how efficiently the substance is removed, as volume per time) stood at 39 mL/min/kg. Moreover, the bioavailability (commonly dose-corrected exposure relative to a reference, in per cent) in [2] came out at 9%. Also, in data set [3], the Vd (as a rule, the apparent volume that relates the amount in the body to the concentration in plasma or blood) is 1.5 L/kg. Besides, the half-life (commonly the time needed for the level to fall by half in the phase considered) in data set [4] is 0.5 h.

On to `CC(C)(Cc1ccc(-c2cccc(Cl)c2Cl)cc1)C(=O)N1CC(F)(F)C[C@H]1c1ncc(-c2cccc(Br)c2)[nH]1`, for which the clearance in data set [1] worked out at 15 mL/min/kg. This compound had a bioavailability in data set [2] of 5%. The compound further came in with a Vd in data set [3] of 4 L/kg. Also, the half-life in data set [4] was 9.6 h.

Consider `CC(C)(N)C(=O)N[C@@H](Cc1ccc(-c2ccccc2)cc1)C(=O)N1CCC[C@H]1c1ncc(C(C)(C)C)[nH]1`, for which the IC50 (commonly the point on the concentration scale where inhibition reaches its midpoint) in data set [5] turned out to be 17 nM; in data set [6] it was 41 nM. In [1], this compound showed a clearance of 11 mL/min/kg. The bioavailability in [2] turned out to be 6%. Further, the volume of distribution (Vd) in [3] was 11 L/kg. In [4], this compound gave a half-life of 15 h.

In turn, `Cc1ccccc1-c1c[nH]c([C@@H]2CCCN2C(=O)COc2ccc(-c3ccccc3)cc2)n1` showed a clearance in [1] of 54 mL/min/kg. This compound yielded a bioavailability in [2] of 49%. The compound further came in with a distribution volume (Vd) in data set [3] of 4 L/kg. This compound had a half-life in [4] of 3.4 h.

As for `C[C@@H](c1ccccc1)[C@H](NC(=O)C(C)(C)N)C(=O)N1CCC[C@H]1c1nc2cc(Cl)c(Cl)cc2[nH]1`, the IC50 in data set [5] was 60 nM; in data set [6], 32 nM. The compound also returned a clearance in data set [1] of 17 mL/min/kg. Also, in [2], the bioavailability turned out to be 41%. In addition, the distribution volume (Vd) in [3] was found to be 1.5 L/kg. Further, the half-life in [4] is 1.5 h.

`O=C(CCc1ccc(-c2ccccc2)cc1)N1CCC[C@H]1c1ncc(-c2cccc(F)c2)[nH]1` had an IC50 in data set [6] of 871 nM. For the same compound, the clearance in data set [1] was determined as 75 mL/min/kg. In addition, in data set [2], the bioavailability came to 5%. Also, in data set [3], the Vd is 4.6 L/kg. The compound also gave a half-life in data set [4] of 0.8 h.

As to `C[C@@H](c1ccc(-c2ccccc2)cc1)[C@H](NC(=O)C(C)(C)N)C(=O)N1CCC[C@H]1c1nc2cc(Cl)c(Cl)cc2[nH]1`, the Activity with Mus musculus [7] stood at 1.1%; in the data set on Mus musculus [11], 4.9%. Further, the concentration was 40 nM in the data set on Brain [8], 50 nM in the data set on Brain [9], 380 nM in the data set on Blood [10] and 430 nM with Blood [12]. Besides, the values for the IC50 in [5] and in data set [6] were 8 nM and 2 nM, respectively. Also, the clearance in [1] is 23 mL/min/kg. The bioavailability in [2] is 13%. In data set [3], the distribution volume (Vd) was found to be 4.4 L/kg. This compound also gave a half-life in data set [4] of 2.3 h.

As for `CC(C)(N)C(=O)N[C@@H](Cc1ccc(-c2ccccc2)cc1)C(=O)N1CCC[C@H]1c1nc2cc(Cl)c(Cl)cc2[nH]1`, the half-maximal inhibitory concentration (IC50) in [5] was found to be 789 nM; in data set [6], 15 nM. In addition, the clearance in data set [1] worked out at 12 mL/min/kg. Besides, the bioavailability in [2] was 31%. In data set [3], this compound had a Vd of 2.7 L/kg. The compound also had a half-life in data set [4] of 2.8 h.

Turning to `Cn1cc(-c2ccc(C[C@H](NC(=O)C(C)(C)N)C(=O)N3CCC[C@H]3c3nc4cc(Cl)c(Cl)cc4[nH]3)cc2)ccc1=O`, the clearance in data set [1] is 70 mL/min/kg. In data set [2], this compound yielded a bioavailability of 0%. This compound also registered a Vd in data set [3] of 14 L/kg. In data set [4], this compound gave a half-life of 2.6 h.

Take `CC(C)(Cc1ccc(-c2ccccc2)cc1)C(=O)N1CCC[C@H]1c1nc(-c2cccc(F)c2)c[nH]1`: the clearance in [1] was determined as 92 mL/min/kg. Besides, the bioavailability in data set [2] stood at 5%. The distribution volume (Vd) in [3] was determined as 8.8 L/kg. The half-life in [4] is 2.3 h.

With `COc1ccc(C[C@H](NC(=O)C(C)(C)N)C(=O)N2CC[C@H]2c2nc3cc(Cl)c(Cl)cc3[nH]2)cc1`, the IC50 in data set [5] amounted to 3320 nM; in [6], 251 nM. For the same compound, the clearance in data set [1] worked out at 25 mL/min/kg. In data set [2], this compound yielded a bioavailability of 33%. This compound also had a Vd in [3] of 2.2 L/kg. In addition, the half-life in data set [4] was 1.4 h.

In [1], `Cc1cccc2[nH]c([C@@H]3[C@@H]4C[C@@H]4CN3C(=O)COc3ccc(-c4ccccc4)cc3)nc12` showed a clearance of 41 mL/min/kg. This compound gave a bioavailability in data set [2] of 20%. This compound displayed a Vd in data set [3] of 2.3 L/kg. This compound also had a half-life in [4] of 0.6 h.

As for `N#Cc1cccc(-c2ccc(CCC(=O)N3C[C@H](O)C[C@H]3c3nc(-c4cccc(Cl)c4)c[nH]3)cc2)c1`, in [1], the clearance was 82 mL/min/kg. For the same compound, the bioavailability in data set [2] worked out at 1%. Also, in data set [3], the volume of distribution (Vd) was determined as 2.2 L/kg. Further, the half-life in [4] is 0.6 h.

`CC(C)(O)C(=O)N[C@@H](Cc1ccc(-c2ccccc2)cc1)C(=O)N1CCC[C@H]1c1ncc(C(C)(C)C)[nH]1`: the half-maximal inhibitory concentration (IC50) in data set [5] came to 15 nM; in data set [6], 16 nM. Also, the clearance in [1] is 117 mL/min/kg. This compound also gave a bioavailability in data set [2] of 0%. Further, the Vd in data set [3] was 2.9 L/kg. The same compound had a half-life in [4] of 0.4 h.

`CC(C)(N)CC(=O)N[C@@H](Cc1ccc(-c2ccccc2)cc1)C(=O)N1CCC[C@H]1c1nc2cc(Cl)c(Cl)cc2[nH]1` gave a clearance in [1] of 14 mL/min/kg. Also, in data set [2], the bioavailability was 0%. Further, the Vd in data set [3] worked out at 6.8 L/kg. The half-life in [4] is 5.2 h.

For the compound `CC(C)(CN)C(=O)N[C@@H](Cc1ccc(-c2ccccc2)cc1)C(=O)N1CCC[C@H]1c1nc2cc(Cl)c(Cl)cc2[nH]1`, the clearance in [1] was 23 mL/min/kg. In [2], this compound registered a bioavailability of 0%. The Vd in data set [3] came out at 7.9 L/kg. For the same compound, the half-life in data set [4] was 4.3 h.

Consider `C[C@@H](c1ccccc1)[C@H](NC(=O)C(C)(C)O)C(=O)N1CCC[C@H]1c1nc2cc(Cl)c(Cl)cc2[nH]1`, for which the results for the IC50 in [5] and in [6] were 98 nM and 29 nM, respectively. The clearance in data set [1] worked out at 72 mL/min/kg. The same compound registered a bioavailability in data set [2] of 4%. In addition, in data set [3], the Vd came to 2.4 L/kg. Moreover, the half-life in data set [4] was 0.5 h.

Consider `C[C@@H](c1ccc(-c2ccc(F)cc2)cc1)[C@H](NC(=O)C(C)(C)O)C(=O)N1CCC[C@H]1c1nc2cc(Cl)c(Cl)cc2[nH]1`, for which the clearance in data set [1] was 23 mL/min/kg. Further, the bioavailability in data set [2] is 12%. The distribution volume (Vd) in data set [3] was determined as 1.2 L/kg. This compound showed a half-life in data set [4] of 0.8 h.

`CC(C)(N)C(=O)N[C@@H](Cc1ccc(Cl)cc1)C(=O)N1CCC[C@H]1c1nc2cc(Cl)c(Cl)cc2[nH]1` yielded a clearance in [1] of 7 mL/min/kg. The compound also yielded a bioavailability in data set [2] of 100%. Also, in [3], the Vd stood at 2.6 L/kg. This compound gave a half-life in [4] of 3 h.
